Experimental data: patent US8993574B2, “Pyrrole antifungal agents” (F2G Ltd, priority 2008, dated 2015)
≈ marks a conversion by molar mass, not a printed value.

How the values were obtained:
Assay type in all cases: cell-based
Aspergillus flavus [1] = assay: MIC, YAG medium; details: 24 h at 35° C, MIC banded into grades; for MIC: Aspergillus flavus, 24 h, read-out: MIC grade, A. flavus
Procedure, shortened: (§1)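 OD 485 nm read-out after 24 h at 35° C; MIC = lowest concentration inhibiting growth >70% vs drug-free control, in mg/L. Inoculum 1−2×10^4 cfu/mL in YAG medium; drug range 50-0.05 mg/L, retested at 0.5-0.0005 mg/L when needed.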

[2] = system: Aspergillus fumigatus AF210; assay: MIC, YAG medium; details: 24 h at 35° C, MIC banded into grades; for MIC: Aspergillus fumigatus, read-out: MIC grade, A. fumigatus 210
Procedure, shortened: as §1

[3] = system: Aspergillus fumigatus AF293; assay: MIC, YAG medium; details: 24 h at 35° C, MIC banded into grades; for MIC: Aspergillus fumigatus, read-out: MIC grade, A. fumigatus
Procedure, shortened: as §1

Aspergillus niger [4] = assay: MIC, YAG medium; details: 24 h at 35° C, MIC banded into grades; for MIC: Aspergillus niger, read-out: MIC grade, A. niger
Procedure, shortened: as §1

Aspergillus terreus AT49 [5] = assay: MIC, YAG medium; details: 24 h at 35° C, MIC banded into grades; for MIC: Aspergillus terreus, read-out: MIC grade, A. terreus 49
Procedure, shortened: as §1

Aspergillus terreus AT4 [6] = assay: MIC, YAG medium; details: 24 h at 35° C, MIC banded into grades; for MIC: Aspergillus terreus, read-out: MIC grade, A. terreus
Procedure, shortened: as §1

Aspergillus flavus [7] = assay: MIC, RPMI medium; details: MIC banded into grades; for MIC: Aspergillus flavus, read-out: MIC grade, A. flavus
Procedure, shortened: (§2)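 Broth microdilution in RPMI with 2% glucose, 0.135 M MOPS pH 7.0; compounds as doubling dilutions, 50-0.05 mg/L, inoculum 1−2×10^4 cfu/mL. Incubated 24-48 h at 35° C; growth by OD 485 nm. MIC is lowest concentration giving >80% growth inhibition versus drug-free control.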

[8] = system: Aspergillus fumigatus AF210; assay: MIC, RPMI medium; details: for MIC: Aspergillus fumigatus, AF210, MIC banded into grades, read-out: MIC grade, A. fumigatus 210
Procedure, shortened: as §2

[9] = system: Aspergillus fumigatus AF293; assay: MIC, RPMI medium; details: for MIC: Aspergillus fumigatus, AF293, MIC banded into grades, read-out: MIC grade, A. fumigatus
Procedure, shortened: as §2

Aspergillus niger [10] = assay: MIC, RPMI medium; details: MIC banded into grades; for MIC: Aspergillus niger, read-out: MIC grade, A. niger
Procedure, shortened: as §2

Aspergillus terreus AT49 [11] = assay: MIC, RPMI medium; details: for MIC: Aspergillus terreus, AT49, MIC banded into grades, read-out: MIC grade, A. terreus 49
Procedure, shortened: as §2

Aspergillus terreus AT4 [12] = assay: MIC, RPMI medium; details: for MIC: Aspergillus terreus, AT4, MIC banded into grades, read-out: MIC grade, A. terreus
Procedure, shortened: as §2

| SMILES | MIC (Aspergillus flavus [1]) [mg/L] | MIC [2] [mg/L] | MIC [3] [mg/L] | MIC (Aspergillus niger [4]) [mg/L] | MIC (Aspergillus terreus AT49 [5]) [mg/L] | MIC (Aspergillus terreus AT4 [6]) [mg/L] | MIC (Aspergillus flavus [7]) [mg/L] | MIC [8] [mg/L] | MIC [9] [mg/L] | MIC (Aspergillus niger [10]) [mg/L] | MIC (Aspergillus terreus AT49 [11]) [mg/L] | MIC (Aspergillus terreus AT4 [12]) [mg/L] | also measured |
| --- | --- | --- | --- | --- | --- | --- | --- | --- | --- | --- | --- | --- | --- |
| COC(=O)n1c(C)cc(-c2ccccc2)c1C(=O)C(=O)Nc1ccc(N2CCN(c3cc(C)cc(C)n3)CC2)cc1 [Example 56, 2-{4-[4-(4,6-Dimethyl-pyridin-2-yl)-piperazin-1-yl]-phenylaminooxalyl}-5-methyl-3-phenyl-pyrrole-1-carboxylic acid methyl ester] | – | – | – | – | – | – | – | – | – | – | – | – | MIC grade, A. flavus (Aspergillus flavus [1]): 1 (a grade of 1 represents an MIC of greater than 10 mg/L); MIC grade, A. fumigatus 210 [2]: 2 (A grade of 2 represents an MIC of from 1 to 10 mg/L); MIC grade, A. fumigatus [3]: 2 (A grade of 2 represents an MIC of from 1 to 10 mg/L); MIC grade, A. niger (Aspergillus niger [4]): 2 (A grade of 2 represents an MIC of from 1 to 10 mg/L); MIC grade, A. terreus 49 (Aspergillus terreus AT49 [5]): 2 (A grade of 2 represents an MIC of from 1 to 10 mg/L); MIC grade, A. terreus (Aspergillus terreus AT4 [6]): 2 (A grade of 2 represents an MIC of from 1 to 10 mg/L); MIC grade, A. flavus (Aspergillus flavus [7]): 1 (a grade of 1 represents an MIC of greater than 10 mg/L); MIC grade, A. fumigatus 210 ([8]; MIC banded into grades): 1 (a grade of 1 represents an MIC of greater than 10 mg/L); MIC grade, A. fumigatus ([9]; MIC banded into grades): 1 (a grade of 1 represents an MIC of greater than 10 mg/L); MIC grade, A. niger (Aspergillus niger [10]): 1 (a grade of 1 represents an MIC of greater than 10 mg/L); MIC grade, A. terreus 49 (Aspergillus terreus AT49 [11]; MIC banded into grades): 1 (a grade of 1 represents an MIC of greater than 10 mg/L); MIC grade, A. terreus (Aspergillus terreus AT4 [12]; MIC banded into grades): 1 (a grade of 1 represents an MIC of greater than 10 mg/L) |
| Cc1cc(-c2ccccc2)c(C(=O)C(=O)Nc2ccc(N3CCN(CC(C)C)CC3)cc2F)n1C [Example 105, 2-(1,5-Dimethyl-3-phenyl-1H-pyrrol-2-yl)-N-[2-fluoro-4-(4-isobutyl-piperazin-1-yl)-phenyl]-2-oxo-acetamide] | < 1 | < 1 | < 1 | < 1 | < 1 | < 1 | < 1 | < 1 | < 1 | < 1 | < 1 | < 1 | – |
| Cc1cc(-c2ccccc2)c(C(=O)C(=O)Nc2ccc(N3CCN(c4ccccn4)CC3)cc2F)n1C [Example 95, 2-(1,5-Dimethyl-3-phenyl-1H-pyrrol-2-yl)-N-[2-fluoro-4-(4-pyridin-2-yl-piperazin-1-yl)-phenyl]-2-oxo-acetamide] | < 1 | < 1 | < 1 | < 1 | < 1 | < 1 | < 1 | < 1 | < 1 | < 1 | < 1 | < 1 | – |
| COCCn1c(C)cc(-c2ccccc2)c1C(=O)C(=O)Nc1ccc(-c2ncco2)cc1 [Example 149, 2-[1-(2-Methoxy-ethyl)-5-methyl-3-phenyl-1H-pyrrol-2-yl]-N-(4-oxazol-2-yl-phenyl)-2-oxo-acetamide] | < 1 | < 1 | < 1 | < 1 | < 1 | < 1 | > 10 | 1 to 10 (≈ 2.33 to 23.3 µM) | 1 to 10 (≈ 2.33 to 23.3 µM) | < 1 | 1 to 10 (≈ 2.33 to 23.3 µM) | 1 to 10 (≈ 2.33 to 23.3 µM) | – |

Continued, in another order:

| MIC (Aspergillus flavus [1]) [mg/L] | MIC [2] [mg/L] | MIC [3] [mg/L] | MIC (Aspergillus niger [4]) [mg/L] | MIC (Aspergillus terreus AT49 [5]) [mg/L] | MIC (Aspergillus terreus AT4 [6]) [mg/L] | MIC (Aspergillus flavus [7]) [mg/L] | MIC [8] [mg/L] | MIC [9] [mg/L] | MIC (Aspergillus niger [10]) [mg/L] | MIC (Aspergillus terreus AT49 [11]) [mg/L] | MIC (Aspergillus terreus AT4 [12]) [mg/L] | SMILES | also measured |
| --- | --- | --- | --- | --- | --- | --- | --- | --- | --- | --- | --- | --- | --- |
| < 1 | < 1 | < 1 | < 1 | < 1 | < 1 | 1 to 10 (≈ 1.86 to 18.6 µM) | < 1 | < 1 | < 1 | < 1 | 1 to 10 (≈ 1.86 to 18.6 µM) | Cc1cc(C)nc(N2CCN(c3ccc(NC(=O)C(=O)c4c(-c5ccccc5)cc(C)n4CCO)cc3)CC2)c1 [Example 64, N-{4-[4-(4,6-Dimethyl-pyridin-2-yl)-piperazin-1-yl]-phenyl}-2-[1-(2-hydroxy-ethyl)-5-methyl-3-phenyl-1H-pyrrol-2-yl]-2-oxo-acetamide] | – |
| 1 to 10 (≈ 1.63 to 16.3 µM) | > 10 | 1 to 10 (≈ 1.63 to 16.3 µM) | > 10 | 1 to 10 (≈ 1.63 to 16.3 µM) | 1 to 10 (≈ 1.63 to 16.3 µM) | > 10 | > 10 | > 10 | > 10 | > 10 | > 10 | Cc1cc(C)nc(N2CCN(c3ccc(NC(=O)C(=O)c4c(-c5ccccc5)cc(C)n4CCOc4ccccc4)cc3)CC2)c1 [Example 134, N-{4-[4-(4,6-Dimethyl-pyridin-2-yl)-piperazin-1-yl]-phenyl}-2-[5-methyl-1-(2-phenoxy-ethyl)-3-phenyl-1H-pyrrol-2-yl]-2-oxo-acetamide] | – |
